Data from PubChem BioAssay (NCI).
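48-hour exposure; five concentrations; linearly interpolated endpoints. The concentration for 50% growth inhibition is given as GI50. TGI: total growth inhibition.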

Assays:
Experiment in all cases: NCI tumour cell line growth inhibition, 48 h
HCT-116 colon = test system: HCT-116 colon
A549 NSCLC = test system: A549 NSCLC
RXF 393 renal = test system: RXF 393 renal
HOP-92 NSCLC = test system: HOP-92 NSCLC
T-47D breast = test system: T-47D breast
HT29 colon = test system: HT29 colon
LOX IMVI melanoma = test system: LOX IMVI melanoma
RPMI-8226 leukemia = test system: RPMI-8226 leukemia
UACC-257 melanoma = test system: UACC-257 melanoma
HCT-15 colon = test system: HCT-15 colon
NCI/ADR-RES ovarian = test system: NCI/ADR-RES ovarian
K-562 leukemia = test system: K-562 leukemia
EKVX NSCLC = test system: EKVX NSCLC
KM12 colon = test system: KM12 colon
NCI-H460 lung = test system: NCI-H460 lung
HL-60(TB) leukemia = test system: HL-60(TB) leukemia
SW-620 colon = test system: SW-620 colon
OVCAR-5 ovarian = test system: OVCAR-5 ovarian
MOLT-4 leukemia = test system: MOLT-4 leukemia
786-0 renal = test system: 786-0 renal
SR leukemia = test system: SR leukemia
M14 melanoma = test system: M14 melanoma
NCI-H23 lung = test system: NCI-H23 lung
SK-MEL-5 melanoma = test system: SK-MEL-5 melanoma
HCC-2998 colon = test system: HCC-2998 colon
SK-MEL-28 melanoma = test system: SK-MEL-28 melanoma
SK-OV-3 ovarian = test system: SK-OV-3 ovarian
TK-10 renal = test system: TK-10 renal
COLO 205 colon = test system: COLO 205 colon
SF-295 CNS = test system: SF-295 CNS
HOP-62 NSCLC = test system: HOP-62 NSCLC
OVCAR-3 ovarian = test system: OVCAR-3 ovarian
PC-3 prostate = test system: PC-3 prostate
DU-145 prostate = test system: DU-145 prostate
UACC-62 melanoma = test system: UACC-62 melanoma
MDA-MB-231 breast = test system: MDA-MB-231 breast
CCRF-CEM leukemia = test system: CCRF-CEM leukemia
OVCAR-8 ovarian = test system: OVCAR-8 ovarian
OVCAR-4 ovarian = test system: OVCAR-4 ovarian
SN12C renal = test system: SN12C renal
CAKI-1 renal = test system: CAKI-1 renal
SF-539 CNS = test system: SF-539 CNS
MCF7 breast = test system: MCF7 breast
MDA-MB-435 = test system: MDA-MB-435
SNB-19 CNS = test system: SNB-19 CNS
ACHN renal = test system: ACHN renal
NCI-H522 lung = test system: NCI-H522 lung
SK-MEL-2 melanoma = test system: SK-MEL-2 melanoma
NCI-H226 lung = test system: NCI-H226 lung
SNB-75 CNS = test system: SNB-75 CNS
SF-268 CNS = test system: SF-268 CNS
MDA-N = test system: MDA-N
IGROV1 ovarian = test system: IGROV1 ovarian
U251 CNS = test system: U251 CNS
UO-31 renal = test system: UO-31 renal
MALME-3M melanoma = test system: MALME-3M melanoma
A498 renal = test system: A498 renal
BT-549 breast = test system: BT-549 breast
HS 578T breast = test system: HS 578T breast

O=C(CSc1nc2ccc(I)cc2c(=O)n1Cc1ccccc1)NN1C(=O)CSC1c1ccccc1 (stereo not given)
TGI (HCT-116 colon): 56.1 µM
TGI (A549 NSCLC): > 100 µM
TGI (RXF 393 renal): 57.4 µM
TGI (HOP-92 NSCLC): 46.9 µM
TGI (T-47D breast): 92.5 µM
TGI (HT29 colon): > 100 µM
TGI (LOX IMVI melanoma): 39.1 µM
TGI (RPMI-8226 leukemia): > 100 µM
TGI (UACC-257 melanoma): 57.5 µM
TGI (HCT-15 colon): 40.5 µM
TGI (NCI/ADR-RES ovarian): 57.2 µM
TGI (K-562 leukemia): > 100 µM
TGI (EKVX NSCLC): 86.2 µM
TGI (KM12 colon): 54.9 µM
TGI (NCI-H460 lung): 36.3 µM
TGI (HL-60(TB) leukemia): 58.9 µM
TGI (SW-620 colon): > 100 µM
TGI (OVCAR-5 ovarian): > 100 µM
TGI (MOLT-4 leukemia): > 100 µM
TGI (786-0 renal): > 100 µM
TGI (SR leukemia): > 100 µM
TGI (M14 melanoma): 84.4 µM
TGI (NCI-H23 lung): 43.2 µM
TGI (SK-MEL-5 melanoma): 42.6 µM
TGI (HCC-2998 colon): 53.2 µM
TGI (SK-MEL-28 melanoma): 95.9 µM
TGI (SK-OV-3 ovarian): 67.9 µM
TGI (TK-10 renal): 86 µM
TGI (COLO 205 colon): 34.6 µM
TGI (SF-295 CNS): 76 µM
TGI (HOP-62 NSCLC): 48.5 µM
TGI (OVCAR-3 ovarian): 32.4 µM
TGI (PC-3 prostate): > 100 µM
TGI (DU-145 prostate): 78.1 µM
TGI (UACC-62 melanoma): 36.7 µM
TGI (MDA-MB-231 breast): 65.6 µM
TGI (CCRF-CEM leukemia): > 100 µM
TGI (OVCAR-8 ovarian): > 100 µM
TGI (OVCAR-4 ovarian): 76.1 µM
TGI (SN12C renal): 56.1 µM
TGI (CAKI-1 renal): 10.9 µM
TGI (SF-539 CNS): 70.7 µM
TGI (MCF7 breast): 42.1 µM
TGI (MDA-MB-435): 69.6 µM
TGI (SNB-19 CNS): > 100 µM
TGI (ACHN renal): 33.1 µM
TGI (NCI-H522 lung): 35.5 µM
TGI (SK-MEL-2 melanoma): 50.8 µM
TGI (NCI-H226 lung): > 100 µM
TGI (SNB-75 CNS): > 100 µM
TGI (SF-268 CNS): 79.1 µM
TGI (MDA-N): > 100 µM
TGI (IGROV1 ovarian): 55.6 µM
TGI (U251 CNS): 69.5 µM

C=C1C(=O)O[C@H]2[C@H]1CC/C(COC(=O)C(=O)c1c[nH]c3ccc(Cl)cc13)=C\CC[C@@]1(C)O[C@@H]21
GI50 (HCT-116 colon): 1.65 µM
TGI (HCT-116 colon): 3.23 µM
GI50 (A549 NSCLC): 2.52 µM
TGI (A549 NSCLC): 6.03 µM
GI50 (UO-31 renal): 1.22 µM
TGI (UO-31 renal): 2.53 µM
GI50 (RXF 393 renal): 1.4 µM
TGI (RXF 393 renal): 2.79 µM
GI50 (HOP-92 NSCLC): 1.86 µM
TGI (HOP-92 NSCLC): 3.42 µM
GI50 (T-47D breast): 1.62 µM
TGI (T-47D breast): 3.77 µM
GI50 (HT29 colon): 0.781 µM
TGI (HT29 colon): 3.01 µM
GI50 (LOX IMVI melanoma): 0.183 µM
TGI (LOX IMVI melanoma): 0.396 µM
GI50 (RPMI-8226 leukemia): 0.422 µM
TGI (RPMI-8226 leukemia): 3.29 µM
GI50 (UACC-257 melanoma): 2 µM
TGI (UACC-257 melanoma): 4.13 µM
GI50 (HCT-15 colon): 0.382 µM
TGI (HCT-15 colon): 1.63 µM
GI50 (MALME-3M melanoma): 1.74 µM
TGI (MALME-3M melanoma): 3.47 µM
GI50 (NCI/ADR-RES ovarian): 1.94 µM
TGI (NCI/ADR-RES ovarian): 4.94 µM
GI50 (K-562 leukemia): 1.58 µM
TGI (K-562 leukemia): 6.18 µM
GI50 (EKVX NSCLC): 2.06 µM
TGI (EKVX NSCLC): 5.03 µM
GI50 (KM12 colon): 3.21 µM
TGI (KM12 colon): 11.6 µM
GI50 (NCI-H460 lung): 2.45 µM
TGI (NCI-H460 lung): 5.93 µM
GI50 (HL-60(TB) leukemia): 1.91 µM
TGI (HL-60(TB) leukemia): 5.09 µM
GI50 (SW-620 colon): 1.67 µM
TGI (SW-620 colon): 10.3 µM
GI50 (OVCAR-5 ovarian): 2.1 µM
TGI (OVCAR-5 ovarian): 5.17 µM
GI50 (MOLT-4 leukemia): 0.778 µM
TGI (MOLT-4 leukemia): 5.47 µM
GI50 (A498 renal): 2.75 µM
TGI (A498 renal): 5.54 µM
GI50 (BT-549 breast): 1.38 µM
TGI (BT-549 breast): 3.19 µM
GI50 (786-0 renal): 1.53 µM
TGI (786-0 renal): 2.93 µM
GI50 (SR leukemia): 0.342 µM
TGI (SR leukemia): 12.2 µM
GI50 (M14 melanoma): 1.59 µM
TGI (M14 melanoma): 3.62 µM
GI50 (NCI-H23 lung): 1.65 µM
TGI (NCI-H23 lung): 3.31 µM
GI50 (SK-MEL-5 melanoma): 1.86 µM
TGI (SK-MEL-5 melanoma): 3.41 µM
GI50 (HCC-2998 colon): 1.8 µM
TGI (HCC-2998 colon): 3.36 µM
GI50 (SK-MEL-28 melanoma): 1.88 µM
TGI (SK-MEL-28 melanoma): 3.92 µM
GI50 (SK-OV-3 ovarian): 11.6 µM
TGI (SK-OV-3 ovarian): 24.1 µM
GI50 (TK-10 renal): 1.73 µM
TGI (TK-10 renal): 3.2 µM
GI50 (COLO 205 colon): 2.12 µM
TGI (COLO 205 colon): 4.58 µM
GI50 (SF-295 CNS): 5.77 µM
TGI (SF-295 CNS): 18.6 µM
GI50 (HOP-62 NSCLC): 1.63 µM
TGI (HOP-62 NSCLC): 3.66 µM
GI50 (OVCAR-3 ovarian): 0.52 µM
TGI (OVCAR-3 ovarian): 2.01 µM
GI50 (PC-3 prostate): 1.76 µM
TGI (PC-3 prostate): 3.57 µM
GI50 (DU-145 prostate): 1.9 µM
TGI (DU-145 prostate): 4.13 µM
GI50 (UACC-62 melanoma): 1.28 µM
TGI (UACC-62 melanoma): 3.54 µM
GI50 (MDA-MB-231 breast): 1.84 µM
TGI (MDA-MB-231 breast): 4.03 µM
GI50 (CCRF-CEM leukemia): 0.375 µM
TGI (CCRF-CEM leukemia): 10.1 µM
GI50 (OVCAR-8 ovarian): 2.32 µM
TGI (OVCAR-8 ovarian): 6.82 µM
GI50 (OVCAR-4 ovarian): 2.34 µM
TGI (OVCAR-4 ovarian): 7.03 µM
GI50 (SN12C renal): 1.84 µM
TGI (SN12C renal): 4.17 µM
GI50 (CAKI-1 renal): 2.81 µM
TGI (CAKI-1 renal): 10.9 µM
GI50 (SF-539 CNS): 1.74 µM
TGI (SF-539 CNS): 3.32 µM
GI50 (MCF7 breast): 0.779 µM
TGI (MCF7 breast): 4.27 µM
GI50 (MDA-MB-435): 1.8 µM
TGI (MDA-MB-435): 4.23 µM
GI50 (SNB-19 CNS): 3.22 µM
TGI (SNB-19 CNS): 10.8 µM
GI50 (ACHN renal): 1.32 µM
TGI (ACHN renal): 2.7 µM
GI50 (NCI-H522 lung): 1.53 µM
TGI (NCI-H522 lung): 3.24 µM
GI50 (SK-MEL-2 melanoma): 1.94 µM
TGI (SK-MEL-2 melanoma): 4.23 µM
GI50 (HS 578T breast): 3.52 µM
TGI (HS 578T breast): 29.4 µM
GI50 (NCI-H226 lung): 1.74 µM
TGI (NCI-H226 lung): 3.31 µM
GI50 (SNB-75 CNS): 1.48 µM
TGI (SNB-75 CNS): 3.87 µM
GI50 (SF-268 CNS): 1.73 µM
TGI (SF-268 CNS): 3.97 µM
GI50 (IGROV1 ovarian): 1.63 µM
TGI (IGROV1 ovarian): 3.32 µM
GI50 (U251 CNS): 1.9 µM
TGI (U251 CNS): 3.45 µM
